Data on 31 compounds can be found in patent publication US9353048B2, “Compound as KCNQ potassium channel agonist, preparation method therefor and use thereof” (SHANGHAI INSTITUTE OF MATERIA MEDICA, CHINESE ACADEMY OF …, priority 2011, dated 2016).

The structures appear in SMILES notation. Structures can show the parent of a compound that is named as a salt. Where two headings read alike, the source gives them in different places.

For one series, the system named is KCNQ channels. The series is described as follows: Whole-cell voltage-clamp electrophysiological recording in CHO cells transfected with KCNQ channels. The class given is cell-based. Conditions: for I/I0: activation multiple, maximum induced current at −10 mV testing voltage after administration (10 μM) vs before, >1 activating, <1 inhibiting; for ΔV1/2: shift of V1/2 of current activation curve, negative sign = left-ward shift, CHO cells. As for the experimental part: The formulation of culture fluid for Chinese hamster […] (CHO) (Culture Collection of Chinese Academy of Sciences): 50/50 DMEM/F-12 (Cellgro, Mamassas, Va.), 10% fetal bovine serum (FBS) (Gibco, Australia) and 2 mM […] (Invitrogen). […] Lipofectamine2000™ agent (Invitrogen) was used for Transfection according to the protocol thereof. […] After cotransfection with GFP (green fluorescent protein), transfected cells could be determined under a fluorescence microscopy.
Whole-cell voltage-clamp recording was performed by using Axopatch-200B amplifier (Molecular Devices, Sunnyvale, Calif.) at room temperature. Borosilicate glass capillary tubes (World Precision Instruments, Sarasota, Fla.) were drawn into electrodes. The electric resistance of the electrodes filled with an intracellular fluid is 3 to 5 MΩ. […] During the recording, an extracellular fluid was continuously perfused by using a BPS perfusion system (ALA Scientific Instruments, Westburg, N.Y.). The formulation of the extracellular fluid was as follows: 140 mM NaCl, 5 mM KCl, 2 mM CaCl2, 1.5 mM MgCl2, 10 mM HEPES and 10 mM glucose (the pH value of the extracellular fluid was adjusted to 7.4 with NaOH). […] Resistors were connected in series to compensate 60 to 80% of signal loss. At present, multivoltage scheme was generally adopted, wherein the clamp voltage was set at −100 mV. Current was induced in cells by a series of 2000 ms stimulating voltage (from −90 mV up to +50 mV, with interval of 10 mV).
In the following table, V1/2 is the voltage at which 50% of cells were activated, ΔV1/2 is amount of a left-ward shift of V1/2, negative sign (−) represents a left-ward shift of the current activation curve and positive sign (+) represents a right-ward shift of the curve. I/I0 is the activation multiple, wherein, I0 is the maximum induced current produced under stimulation of −10 mV testing voltage, I is the maximum induced current produced under stimulation of −10 mV testing voltage after administration (10 μM), I/I0>1 represents activating activity, and I/I0<1 represents inhibiting activity. N is the number of tested cells. NT represents non-tested.

The subject of series [1] is Convulsion Induced by Pentylenetetrazole (PTZ). As to the kind of experiment: Convulsion induced by pentylenetetrazole (PTZ), compounds by gastric lavage, C57BL/6J mice. The class given is in vivo. Conditions: 30 mg/kg gastric lavage, PTZ-induced convulsion. How it is done: The compounds to be tested were administrated to animals by gastric lavage (30 mg/kg); one hour later, pentylenetetrazole was administrated by subcutaneous injection (PTZ 80 mg/kg); and response of animals were observed within a period of 60 min.

Series [2] in a line: Distribution of K20.2HCl and K21.2HCl in mice's plasma and brain tissue. The class given is in vivo, KM mice. Conditions: for Kp: brain, read-out: concentration of prototype drug in brain tissue relative to plasma. From the text:
Two hours after administration, animal were fed uniformly. Specific arrangement was as following table.
Then the residual liquid was absorbed to dryness.

Series [3] has as its system Animal Models Induced by PTZ. The series is described as follows: PTZ test, compounds orally administrated (gastric lavage), KM mice. Conditions: gastric lavage; formate dihydrochloride.
Description: Response of animals were observed immediately and recorded within a period of 1 h.
Series [4] deals with Animal Models Induced by MES. As to the kind of experiment: MES test, compounds orally administrated (gastric lavage), KM mice. Conditions: gastric lavage; formate dihydrochloride. The class given is in vivo. How it is done: One time of electrical stimulation was applied to animals through ear clip electrodes, and a convulsion characterized by a tonic hind limb extension was observed. One day before the test, animals were screened in the above procedure to record the values of MES.
1 hour later, MES was applied according to parameters set the last day, and response of animals were observed and recorded immediately.

Series [5] deals with Animal Models Induced by PTZ (Pentylenetetrazole). As to the kind of experiment: PTZ test, compounds by intraperitoneal injection, KM mice. Conditions: intraperitoneal injection, same dosage, PTZ and MES tests; formate dihydrochloride. The class given is in vivo. As for the experimental part:
Compounds to be tested were administrated by intraperitoneal injection (10 mg/kg, 5 mg/kg, 2.5 mg/kg, 0.1 ml/10 g).

Setting [6] is: K21.2HCl 5 mg/kg gastric lavage.

For `CC(=O)Nc1ccc(NCc2ccc(F)cc2)cc1` [Compound K2], in the series on KCNQ channels, the I/I0 amounted to 1.50 ± 0.08 and the ΔV1/2 is −3.0 ± 2.0 mV. In the same order, the values of `C#CCN(Cc1ccc(F)cc1)c1ccc(NC(=O)OCc2ccccc2)cc1` [Compound K4] are 2.09 ± 0.25 and −11.5 ± 2.0 mV. The corresponding values for `C#CCN(Cc1ccc(F)cc1)c1ccc(NC(=O)OCC(C)C)cc1` [Compound K5] are 1.23 ± 0.08 and −14.3 ± 3.3 mV.

For the compound `CCCCCOC(=O)Nc1ccc(N(Cc2ccc(F)cc2)C(=O)OCCCCC)cc1` [Compound K6], in the series on KCNQ channels, the I/I0 was 1.24 ± 0.02 and the ΔV1/2 was −1.6 ± 3.0 mV. The corresponding values for `C=CCN(Cc1ccc(F)cc1)c1ccc(NC(=O)OCC)cc1` [Compound K7] are 1.35 ± 0.27 and −4.7 ± 2.0 mV. In the same order, the values of `C#CCN(Cc1ccc(F)cc1)c1ccc(NC(=O)OCC)cc1` [Compound K8] are 1.99 ± 0.37 and −7.3 ± 2.5 mV. For `C#CCN(Cc1ccc(F)cc1)c1ccc(F)c(NC(=O)OC)c1` [Compound K10, methyl 2-fluoro-5-(N-parafluorobenzyl-N-propargyl-imino)-aniline formate], in the series on KCNQ channels, the I/I0 came out at 2.75 ± 0.31 and the ΔV1/2 is recorded as −18.7 ± 2.6 mV. In the case of `C#CCN(Cc1ccc(F)c(C(F)(F)F)c1)c1ccc(F)c(NC(=O)OC)c1` [Compound K11], in series [1], the “anti-convulsive effect (in words)” value is given as “comparable anti-convulsive effect”. Further, in the series on KCNQ channels, the I/I0 was 2.24 ± 0.36 and the ΔV1/2 was −15.7 ± 1.0 mV. Turning to `C#CCN(Cc1cccc(F)c1)c1ccc(NC(=O)OC)cc1` [Compound K12], in the series on KCNQ channels, the I/I0 amounted to 2.33 ± 0.17 and the ΔV1/2 is −21.1 ± 1.9 mV. In the same order, the values of `C#CCN(Cc1ccccc1F)c1ccc(NC(=O)OC)cc1` [Compound K13] are 2.31 ± 0.36 and −7.6 ± 1.9 mV. On to `C#CCN(Cc1ccc(F)c(C(F)(F)F)c1)c1ccccc1NC(=O)OC` [Compound K14], for which, in the series with KCNQ channels, the I/I0 is recorded as 1.43 ± 0.04 and the ΔV1/2 is −14.7 ± 2.1 mV.

As to `C#CCN(Cc1ccc(F)cc1)c1ccc(NC(=O)OC)c(F)c1` [Compound K15], in the series on KCNQ channels, the I/I0 is given as 2.09 ± 0.31 and the ΔV1/2 is recorded as −22.0 ± 1.5 mV. In the case of `C#CCN(c1cccc(NC(=O)OC)c1)C(C)c1ccc(F)cc1` (centres unmarked) [Compound K16], in the series on KCNQ channels, the I/I0 is 1.47 ± 0.10 and the ΔV1/2 is −20.6 ± 4.5 mV. The corresponding values for `C#CCN(Cc1ccc(F)c(F)c1)c1ccc(NC(=O)OC)cc1` [Compound K19] are 2.52 ± 0.23 and −14.9 ± 2.7 mV. Consider `C=CCN(Cc1ccc(F)cc1)c1ccc(NC(=O)OCC)c(N)c1` [Compound K20, ethyl 2-amino-4-(N-parafluorobenzyl-N-allyl-imino)-aniline formate], for which, in series [2] (male, KM, mouse, oral, 20 mg/kg gastric lavage), the Kp turned out to be 2.3. In the series on KCNQ channels, the I/I0 is recorded as 1.75 ± 0.12 and the ΔV1/2 is −49.7 ± 3.4 mV. In the case of `C#CCN(Cc1ccc(F)cc1)c1ccc(NC(=O)OCC)c(N)c1` [Compound K21.2HCl, ethyl 2-amino-4-(N-parafluorobenzyl-N-propargyl-imino)-aniline formate dihydrochloride], in series [2] (setting [6]), the “exposure amount of metabolite retigabine in brain tissue relative to prototype drug” value is given as 4.6% and the “exposure amount of metabolite retigabine in plasma relative to prototype drug” value was 5.4%. In series [2] (male, KM, mouse, oral, 5 mg/kg gastric lavage), the Kp was 2.4. Further, the Tmax in series [2] (male, KM, mouse, plasma or brain tissue, oral, K21.2HCl 5 mg/kg gastric lavage, read-out: time to reach the maximum concentrations (Tmax) of prototype drug in plasma or brain tissue) is 15 min. In series [3], the “effect in PTZ test (in words)” value is listed as “obviously inhibit the tonic seizures”. Moreover, the “effect in MES test (in words)” value in series [4] was “comparable effect”. In series [5], the “anti-convulsive effect compared with retigabine (in words)” value was “superior anti-convulsive effect”. For the compound `C#CCN(Cc1ccc(F)cc1)c1ccc(NC(=O)OC)c(NC(=O)OC)c1` [Compound K22, methyl 2-(methoxycarbonyl-imino)-4-(N-parafluorobenzyl-N-propargyl-imino)-aniline formate], in the series on KCNQ channels, the I/I0 came out at 2.10 ± 0.35 and the ΔV1/2 is −27.31 ± 3.9 mV.

With `CC#CCN(Cc1ccc(F)cc1)c1ccc(NC(=O)OCC)c(NC(=O)OCC)c1` [Compound K23], in the series on KCNQ channels, the I/I0 is 1.44 ± 0.14 and the ΔV1/2 was −15.34 ± 3.8 mV. The corresponding values for `CCC#CCN(Cc1ccc(F)cc1)c1ccc(NC(=O)OCC)c(NC(=O)OCC)c1` [Compound K24] are 1.2 ± 0.1 and −1.87 ± 2.5 mV. The corresponding values for `C#CCN(Cc1ccc(F)cc1)c1ccc2[nH]c(=O)[nH]c2c1` [Compound K25, 5-(N-parafluorobenzyl-N-propargyl-imino)-benzimidazole-2-one] are 1.8 ± 0.1 and −5.8 ± 1.7 mV. In the series on KCNQ channels, `CCOC(=O)Nc1ccc(N(CCCC(C)=O)Cc2ccc(F)cc2)cc1NC(=O)OCC` [Compound K26] returned an I/I0 of 1.25 ± 0.07. In the case of `C=CCOC(=O)Nc1ccc(N(Cc2ccc(F)cc2)CC(C)C)cc1NC(=O)OCC=C` [Compound K27], in the series with KCNQ channels, the I/I0 came to 1.52 ± 0.17. On the same count and under the same terms, under `C=C(C)CN(Cc1ccc(F)cc1)c1ccc(NC(=O)OC)c(NC(=O)OC)c1` [Compound K28] stands 1.43 ± 0.05.

As to `C=C(C)CN(Cc1ccc(F)cc1)c1ccc(NC(=O)OC(C)(C)C)c(NC(=O)OC(C)(C)C)c1` [Compound K29], the I/I0 with KCNQ channels stood at 1.24 ± 0.10.

`C=C(C)CN(Cc1ccc(F)cc1)c1ccc(NC(=O)OC(C)C)c(NC(=O)OC(C)C)c1` [Compound K30]: the I/I0 in the series on KCNQ channels amounted to 1.57 ± 0.25. `COC(=O)Nc1ccc(N(CC=C(C)C)Cc2ccc(F)cc2)cc1NC(=O)OC` [Compound K31] gave an I/I0 with KCNQ channels of 1.36 ± 0.13. Take `C=C(/C=C/CO)CN(Cc1ccc(F)cc1)c1ccc(NC(=O)OCC)c(NC(=O)OCC)c1` [Compound K32, ethyl 2-(ethoxycarbonyl-imino)-4-[N-parafluorobenzyl-N-1-(6-hydroxyl-2-alkenyl-3-hexylene)-imino]-aniline formate]: in the series with KCNQ channels, the I/I0 turned out to be 1.76 ± 0.09 and the ΔV1/2 is on record as −6.0 ± 1.5 mV. `C#CCCOC(=O)Nc1ccc(N(CC#C)Cc2ccc(F)cc2)cc1N` [Compound K33]: the ΔV1/2 in the series with KCNQ channels was −36.8 ± 3.3 mV. The compound `C=CCN(Cc1ccc(F)cc1)c1ccc2[nH]c(=O)[nH]c2c1` [Compound K34, 5-(N-parafluorobenzyl-N-allyl-imino)-benzimidazole-2-one] showed an I/I0 in the series with KCNQ channels of 1.44 ± 0.16. On the same count and under the same terms, with `CCOC(=O)Nc1ccc(N(CC2=CCCCC2)Cc2ccc(F)cc2)cc1NC(=O)OCC` [Compound K38] the figure was 0.16 ± 0.02. On the same count and under the same terms, with `C=C(/C=C/CN)CN(Cc1ccc(F)cc1)c1ccc(NC(=O)OCC)c(NC(=O)OCC)c1` [Compound K39, ethyl 2-(ethoxycarbonyl-imino)-4-[N-parafluorobenzyl-N-1-(6-amino-2-alkenyl-3-hexylene)-imino]-aniline formate] the figure was 1.03 ± 0.11.
